# Measured values as given in BindingDB's records for doi:10.1016/S0960-894X(00)80683-6 (1993).
# How the values were obtained:
# [1] = target: Gastrin/cholecystokinin type B receptor (Cavia porcellus); test: Ability to inhibit the binding of [125I]-gastrin to gastric glands in guinea pig.
# [2] = target: Gastrin/cholecystokinin type B receptor (Cavia porcellus); test: Ability to inhibit the binding of [125I]CCK-8 to Cholecystokinin type B receptor in guinea pig cortex.
# [3] = target: Gastrin/cholecystokinin type B receptor (Cavia porcellus); test: as above; remark: listed apart in the source
IC50 [1],IC50 [2],IC50 [3],Structure (SMILES)
480 nM,150 nM,,"CC(C)(C)OC(=O)CN1C(=O)C(NC(=O)Nc2cccc3ccccc23)CCc2ccccc21 (configuration not stated) [[3-(3-Naphthalen-1-yl-ureido)-2-oxo-2,3,4,5-tetrahydro-benzo[b]azepin-1-yl]-acetic acid tert-butyl ester]"
460 nM,,650 nM,"O=C(Nc1cccc2ccccc12)NC1CCc2ccccc2N(CC(=O)N2CCCC2)C1=O (configuration not stated) [1-Naphthalen-1-yl-3-[2-oxo-1-(2-oxo-2-pyrrolidin-1-yl-ethyl)-2,3,4,5-tetrahydro-1H-benzo[b]azepin-3-yl]-urea]"
120 nM,,180 nM,"CC(C)(C)OC(=O)CN1C(=O)C(NC(=O)Nc2ccc(Cl)cc2)CCc2ccccc21 (configuration not stated) [{3-[3-(4-Chloro-phenyl)-ureido]-2-oxo-2,3,4,5-tetrahydro-benzo[b]azepin-1-yl}-acetic acid tert-butyl ester]"
3100 nM,,8600 nM,"COc1cccc(NC(=O)NC2CCc3ccccc3N(CC(=O)O)C2=O)c1 (configuration not stated) [{3-[3-(3-Methoxy-phenyl)-ureido]-2-oxo-2,3,4,5-tetrahydro-benzo[b]azepin-1-yl}-acetic acid]"
610 nM,5000 nM,,"Cc1cccc(NC(=O)NC2CCc3ccccc3N(CC(=O)N3CCN(C)CC3)C2=O)c1 (configuration not stated) [1-{1-[2-(4-Methyl-piperazin-1-yl)-2-oxo-ethyl]-2-oxo-2,3,4,5-tetrahydro-1H-benzo[b]azepin-3-yl}-3-m-tolyl-urea]"

Structure (SMILES),IC50 [1],IC50 [2],IC50 [3]
"CN1CCN(C(=O)CN2C(=O)C(NC(=O)Nc3ccc(Cl)cc3)N=C(c3ccccc3)c3ccccc32)CC1 (configuration not stated) [1-(4-Chloro-phenyl)-3-{1-[2-(4-methyl-piperazin-1-yl)-2-oxo-ethyl]-2-oxo-5-phenyl-2,3-dihydro-1H-benzo[e][1,4]diazepin-3-yl}-urea]",2.6 nM,,8 nM
